In paper PMC3248963 (Bioorganic & medicinal chemistry letters, 2011):
Where no end group is shown, it is not given here.

Legend:
GLP1 receptor = settings: cited from earlier work
[1] = system: dipeptidyl peptidase 4 (DPP4); settings: cited from earlier work
[2] = molecular target: human GLP1 receptor (CHO-GLP1R cells) (Homo sapiens, UniProt P43220); assay: intracellular cAMP response assay, wild type receptor; assay type: cell-based; settings: EC50 values
M397L GLP1 receptor = M397L GLP1 receptor (Homo sapiens, UniProt P43220, M397L); assay: intracellular cAMP response assay, M397L mutant receptor; assay type: cell-based
[3] = molecular target: GLP1 receptor (CHO-GLP1R cell membranes) (Homo sapiens, UniProt P43220); assay: photoaffinity labeling of wild type receptor by radioiodinated Bpa-NRTFD
GLP1 receptor (CHO-GLP1R cell membranes), sequence (P43220 24-463): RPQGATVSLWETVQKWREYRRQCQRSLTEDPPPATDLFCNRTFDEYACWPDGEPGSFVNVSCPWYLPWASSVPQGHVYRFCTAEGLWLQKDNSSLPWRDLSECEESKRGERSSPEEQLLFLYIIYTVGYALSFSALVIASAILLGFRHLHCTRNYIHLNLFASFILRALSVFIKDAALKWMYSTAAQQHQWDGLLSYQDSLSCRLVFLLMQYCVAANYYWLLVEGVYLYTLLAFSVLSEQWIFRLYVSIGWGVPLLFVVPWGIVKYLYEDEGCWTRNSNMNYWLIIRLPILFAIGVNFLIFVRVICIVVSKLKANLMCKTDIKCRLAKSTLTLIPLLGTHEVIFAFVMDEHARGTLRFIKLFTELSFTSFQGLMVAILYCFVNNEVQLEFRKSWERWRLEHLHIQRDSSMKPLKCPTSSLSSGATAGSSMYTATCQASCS

human GLP1 receptor (CHO-GLP1R cells), sequence (P43220 24-463): as above
M397L GLP1 receptor, sequence (P43220 24-463 M397L): as the sequence (P43220 24-463) above, with M374L counted along it

| Compound | blockade of agonist action by high affinity peptide antagonist (GLP1 receptor) | degradation by DPP4 [1] | EC50 [2] [nM] | EC50 (M397L GLP1 receptor) [nM] | IC50 [3] [nM] |
| --- | --- | --- | --- | --- | --- |
| CC[C@H](C)[C@H](NC(=O)[C@H](Cc1ccccc1)NC(=O)[C@H](CCC(=O)O)NC(=O)[C@H](CCCCN)NC(=O)[C@H](C)NC(=O)[C@H](C)NC(=O)[C@H](CCC(N)=O)NC(=O)CNC(=O)[C@H](CCC(=O)O)NC(=O)[C@H](CC(C)C)NC(=O)[C@H](Cc1ccc(O)cc1)NC(=O)[C@H](CO)NC(=O)[C@H](CO)NC(=O)[C@@H](NC(=O)[C@H](CC(=O)O)NC(=O)[C@H](CO)NC(=O)[C@@H](NC(=O)[C@H](Cc1ccccc1)NC(=O)[C@@H](NC(=O)CNC(=O)[C@H](CCC(=O)O)NC(=O)[C@H](C)NC(=O)[C@@H](N)Cc1c[nH]cn1)[C@@H](C)O)[C@@H](C)O)C(C)C)C(=O)N[C@@H](C)C(=O)N[C@@H](Cc1c[nH]c2ccccc12)C(=O)N[C@@H](CC(C)C)C(=O)N[C@H](C(=O)N[C@@H](CCCCN)C(=O)NCC(=O)N[C@@H](CCCNC(=N)N)C(N)=O)C(C)C [GLP1] | competitively blocked | rapidly degraded | – | – | – |
| NRTFD [NRTFD] | – | – | 1600 ± 500 | 2200 ± 800 | 3100 ± 800 |
